The text below walks through data of patent US20010056099A1, “Method of reducing morbidity and the risk of mortality” (priority 2000, published 2001).

The test system of assay [1] is OVX rats. In words: Ovariectomized rat model: histomorphometry of proximal tibial metaphyses. It is filed as in vivo. Particulars: 4 weeks. From the text:
(§1) In women, estrogen deficiency during the menopause results in increased bone turnover leading to bone loss. Ovariectomy in rats produces estrogen deficiency and increased bone turnover leading to trabecular bone loss similar to that observed in post-menopausal women (Kalu, D. N., Bone and Mineral 1991;15:175; Frost, H. M., Jee W. S. S., Bone and Mineral 1992;18:227; Wronski, T. J., Yen, C-F, Cells Materials 1991 ;(suppl. 1):69). The OVX rat is thus an appropriate model to evaluate compounds for the prevention and treatment of post-menopausal osteoporosis. The ability of PPTN to inhibit estrogen deficiency bone loss was assessed in 5-month-old OVX rats, since ovariectomy causes significant bone loss in the lumbar vertebrae, proximal tibia, and distal femoral metaphyses (Ke, H. Z., et al., Endocrin 1995;136:2435; Chen, H. K., et al., J Bone Miner Res 1995;10:1256).
(§2) Five-month-old OVX female rats were treated with PPTN at oral doses of 0.733, 7.33, 73.3, and 733 μg/kg/day, or 17α-ethynyl estradiol (EE) at 30 μg/kg/day (10 rats per subgroup) daily for 4 weeks. The oral treatment began 1 day after surgery. Groups of vehicle-treated sham rats (n=10) and vehicle-treated OVX rats (n=10) served as controls. Calcein at 10 mg/kg was injected s.c. to all rats 12 and 2 days before necropsy as a fluorochrome bone marker to measure bone dynamic histomorphometric parameters. The effects of PPTN on the following end points were determined: (a) serum osteocalcin, a biochemical marker of bone turnover, (b) bone mineral density of lumbar vertebrae and distal femoral metaphyses, (c) bone histomorphometry of fifth lumbar vertebral body and proximal tibial metaphyses.
In order to determine the effect of PPTN on long bone metaphyses, histomorphometric analyses were performed on the proximal tibiae.

In assay [2] the test system is OVX rats. The experiment in a line: Ovariectomized rat model: bone histomorphometry of fifth lumbar vertebral body. Format: in vivo. Particulars: 4 weeks; for OVX-induced increase in bone formation rate (BFR) / percent eroded surface (index of osteoclastic bone resorption) compared with sham controls: lumbar vertebra.
Description: as §1, §2
In order to understand the cellular mechanism of bone-protective effects of PPTN at the tissue level, bone histomorphometric methods were used to determine the effects of PPTN on cancellous bone of the fifth lumbar vertebral body in OVX rats. Ovariectomy caused significant decreases in trabecular bone volume (trabecular bone area divided by marrow space area, expressed as percent) and trabecular number, and a significant increase in trabecular separation of the fifth lumbar vertebral body.

Assay [3] has as its system OVX rats. In words: Ovariectomized rat model: femoral BMD by dual-energy X-ray absorptiometry. Format: in vivo. To be noted: 4 weeks.
Description: as §1, §2
Using dual-energy X-ray absorptiometry, the right femur of each rat was scanned ex vivo. Bone mineral density (BMD) of the distal femoral metaphyses (second 0.5 cm from the distal end of femur) and the proximal femur (the first 0.5 cm from the proximal end of femur, which contains the femoral head, neck, and greater trochanter) was determined.

Assay [4] has as its system OVX rats. The experiment in a line: Ovariectomized rat model: serum osteocalcin by radioimmunoassay. To be noted: daily for 4 weeks. It is filed as in vivo.
Description: as §1
Five-month-old OVX female rats were treated with PPTN at oral doses of 0.733, 7.33, 73.3, and 733 μg/kg/day, or 17α-ethynyl estradiol (EE) at 30 μg/kg/day (10 rats per subgroup) daily for 4 weeks. […] The effects of PPTN on the following end points were determined: (a) serum osteocalcin, a biochemical marker of bone turnover, (b) bone mineral density of lumbar vertebrae and distal femoral metaphyses, (c) bone histomorphometry of fifth lumbar vertebral body and proximal tibial metaphyses. […]

Assay [5] has as its system OVX rats. In words: Ovariectomized rat model: lumbar vertebral BMD by dual-energy X-ray absorptiometry. Format: in vivo. To be noted: 4 weeks.
Description: as §1, §2
The first to the sixth lumbar vertebrae from each rat were removed during necropsy. These were then scanned ex vivo using dual-energy X-ray absorptiometry. The scan images were analyzed, and bone area, bone mineral content (BMC), and bone mineral density (BMD) of whole lumbar vertebrae (WLV), and LV1 through LV6 were determined. […] The changes in BMC were similar to those observed in BMD. […]

Another assay relates to MDA-MB-231 cells. The experiment in a line: Inhibition of in vitro human breast tumor cell growth (ER-negative line). Format: cell-based. Particulars: MDA-MB-231 (ER-negative), 6 days incubation, direct cell counts. On the procedure:
The in vitro antiproliferative effects of (-)-cis-6-phenyl-5-[4-(2-pyrrolidin-1-yl-ethoxy)-phenyl]-5,6,7,8-tetrahydro-naphthalene-2-ol (PPTN) were tested using two types of human breast cancer cell lines: first, MCF-7 cells, which contain ER as well as progesterone receptors (PgR), and second, MDA-MB-231 cells, which lack ER and PgR, and enable the determination of an effect that is independent of the ER mechanism. The effect of PPTN on the growth of these different cell lines was determined by incubation of the cells with various compound concentrations for 6 days.
The antiproliferative effects were then determined by direct cell counts. PPTN inhibited the growth of the ER-positive cell line MCF-7.

Where [6] appears, read: PPTN at doses ≧7.33 μg/kg/day oral.
[7] abbreviates: PPTN at 73.3 or 733 μg/kg/day oral.

As for `C#C[C@]1(O)CC[C@H]2[C@@H]3CCc4cc(O)ccc4[C@H]3CC[C@@]21C` [EE, 17α-ethynyl estradiol, reference compound], the “bone turnover rate in proximal tibial trabecular bone” value in the assay on OVX rats [1] (EE 30 μg/kg/day oral) is given as “did not differ from sham controls”. Also, in the assay with OVX rats [1] (EE 30 μg/kg/day oral, proximal tibia), the “osteoclast number per millimeter of bone surface and percent osteoclast surface compared with both sham and OVX controls” value is “significantly decreased”. In the assay on OVX rats [2] (EE 30 μg/kg/day oral), the “OVX-induced changes in trabecular bone volume, trabecular number and trabecular separation of fifth lumbar vertebral body” value is “completely prevented”; the “bone turnover rate, lumbar vertebra” value was “did not differ from sham controls”; the “trabecular number of fifth lumbar vertebral body compared with sham controls” value is on record as “significantly increased”; the “OVX-induced increase in bone formation rate (BFR)” value is given as “inhibited this increase”. Besides, the “percent eroded surface (index of osteoclastic bone resorption) compared with sham controls” value in the assay on OVX rats [2] (EE 30 μg/kg/day oral) is given as “significantly decreased”. Besides, in the assay with OVX rats [3] (EE 30 μg/kg/day oral), the “OVX-induced decrease in BMD of distal femoral metaphyses” value is given as “prevented the decrease” and the “proximal femoral BMD” value is “had no effect”. Besides, the “OVX-induced increase in serum osteocalcin concentration” value with OVX rats [4] (EE 30 μg/kg/day oral) is “completely prevented”. Further, in the assay with OVX rats [5] (EE 30 μg/kg/day oral), the “OVX-induced decrease in lumbar vertebral BMD” value is “completely prevented”.

As for `Oc1ccc2c(c1)CC[C@H](c1ccccc1)[C@@H]2c1ccc(OCCN2CCCC2)cc1` [PPTN, (-)-cis-6-phenyl-5-[4-(2-pyrrolidin-1-yl-ethoxy)-phenyl]-5,6,7,8-tetrahydro-naphthalene-2-ol], in the assay with OVX rats [1] (PPTN at 0.733 μg/kg/day oral), the “proximal tibial trabecular bone volume” value was “no significant effect”. The “percent osteoclast surface compared with OVX controls” value in the assay with OVX rats [1] (PPTN at 0.733 μg/kg/day, proximal tibia) is listed as “decreased significantly”. In addition, the “osteoclast number per millimeter of bone surface and percent osteoclast surface compared with both sham and OVX controls” value in the assay on OVX rats [1] (PPTN at 7.33, 73.3, or 733 μg/kg/day oral, proximal tibia) is “significantly decreased”. For the same molecule, in the assay on OVX rats [1] (PPTN at doses of 7.33 to 733 μg/kg/day oral), the “bone turnover rate in proximal tibial trabecular bone” value is given as “did not differ from sham controls”. Also, the “proximal tibial trabecular bone volume compared with OVX controls” value in the assay on OVX rats [1] (setting [6]) was “significantly greater”. Further, in the assay with MDA-MB-231 cells, the “inhibition of cell proliferation” value is listed as “did not inhibit cell proliferation”. In addition, the “ED50 in preserving lumbar vertebral cancellous bone mass and structure” value in the assay with OVX rats [2] (OVX rats, oral) is reported as “less than 0.733 μg/kg/day”. The “trabecular number of fifth lumbar vertebral body compared with sham controls” value with OVX rats [2] (setting [7]) was “significantly increased”. Moreover, in the assay with OVX rats [2] (PPTN at all dose levels, oral), the “bone turnover rate, lumbar vertebra” value is recorded as “did not differ from sham controls”; the “OVX-induced increase in bone formation rate (BFR)” value is reported as “inhibited this increase”; the “percent eroded surface (index of osteoclastic bone resorption) compared with sham controls” value was “significantly decreased”. Further, in the assay on OVX rats [2] (all doses of PPTN (0.733-733 μg/kg/day oral)), the “OVX-induced changes in trabecular bone volume, trabecular number and trabecular separation of fifth lumbar vertebral body” value is recorded as “completely prevented”. In the assay on OVX rats [3] (PPTN at 0.733 or 7.33 μg/kg/day oral), the “BMD of distal femoral metaphyses and proximal femur” value is listed as “did not differ from OVX controls”. Also, the “OVX-induced decreases in BMD of distal femoral metaphyses and proximal femur” value in the assay with OVX rats [3] (setting [7]) was “completely prevented the decreases”. Also, the “OVX-induced increase in serum osteocalcin concentration” value with OVX rats [4] (setting [6]) is “completely prevented”. In addition, the “lumbar vertebral BMD compared with both sham and OVX controls” value with OVX rats [5] (PPTN 73.3 μg/kg/day oral) is “increased significantly”. The “OVX-induced decrease in lumbar vertebral BMD” value in the assay with OVX rats [5] (PPTN at all dose levels (0.733, 7.33, 73.3, 733 μg/kg/day oral)) is on record as “completely prevented”.
